Data published in US9006221B2, “Method of modulating ship activity” (H. Lee Moffitt Cancer Center and Reserach Institute, Inc., priority 2008, dated 2015).
“Also recorded” adds a separate entry of the source.

How the values were obtained:
[1] = tested on: priming of allogeneic T cell responses by C57Bl6/J splenocytes; test: One-way mixed leukocyte reaction (MLR), stimulator splenocytes treated in vitro; assay type: cell-based, mouse; conditions: splenocytes cultured with compound 72 hr, added at 0, 24 and 48 hr
Method: Mean proliferation of 100K BALB/C responders as measured by ^3H-Thymidine uptake after exposure to 200K irradiated BL6 stimulators that were treated with the indicated compound, 1×DMSO or 1× EtOH prior to initiation of the mixed leukocyte reaction (MLR). 1×DMSO serves as the allogeneic MLR positive control for all compounds with the exception of HLM85321 for which 1× EtOH is the positive control. [*p<0.05, **p<0.01].
Spleen cells and lymphe node LN cells are normally robust stimulators of allogeneic T cell responses in the one-way mixed leukocyte reaction (MLR) assay, but they are very poor stimulators when obtained from mice with germline or induced SHIP-deficiency. […]
Mixed leukocyte reactions (MLR): Following RBC lysis, irradiated (2000 Rads) BL6 splenocytes (stimulators) at 8×10^5 cells/well were combined with BALB/c splenocytes (responders) at 4×10^5 cells/well in a one-way MLR assay. […] Incorporated [3H]thymidine was quantitated using a Packard TopCount NXT. Specific [3H]thymidine incorporation into genomic DNA was calculated as the average of the mean (±SEM) of sextuplicate wells. […]

SHIP1 = biological target: T1, SHIP1 (Mus musculus, UniProt Q9ES52); test: Malachite Green phosphate release assay, SHIP1; assay type: biochemical; conditions: at 1 mM
T1 construct: The asterisk in lanes 1 and 3 indicates the ˜145 kD full-length SHIP protein; His tag (C); made in house; host or cells: E. coli Rosetta-Gami 2 (DE3) pLys
T1 sequence (Q9ES52 1-1191): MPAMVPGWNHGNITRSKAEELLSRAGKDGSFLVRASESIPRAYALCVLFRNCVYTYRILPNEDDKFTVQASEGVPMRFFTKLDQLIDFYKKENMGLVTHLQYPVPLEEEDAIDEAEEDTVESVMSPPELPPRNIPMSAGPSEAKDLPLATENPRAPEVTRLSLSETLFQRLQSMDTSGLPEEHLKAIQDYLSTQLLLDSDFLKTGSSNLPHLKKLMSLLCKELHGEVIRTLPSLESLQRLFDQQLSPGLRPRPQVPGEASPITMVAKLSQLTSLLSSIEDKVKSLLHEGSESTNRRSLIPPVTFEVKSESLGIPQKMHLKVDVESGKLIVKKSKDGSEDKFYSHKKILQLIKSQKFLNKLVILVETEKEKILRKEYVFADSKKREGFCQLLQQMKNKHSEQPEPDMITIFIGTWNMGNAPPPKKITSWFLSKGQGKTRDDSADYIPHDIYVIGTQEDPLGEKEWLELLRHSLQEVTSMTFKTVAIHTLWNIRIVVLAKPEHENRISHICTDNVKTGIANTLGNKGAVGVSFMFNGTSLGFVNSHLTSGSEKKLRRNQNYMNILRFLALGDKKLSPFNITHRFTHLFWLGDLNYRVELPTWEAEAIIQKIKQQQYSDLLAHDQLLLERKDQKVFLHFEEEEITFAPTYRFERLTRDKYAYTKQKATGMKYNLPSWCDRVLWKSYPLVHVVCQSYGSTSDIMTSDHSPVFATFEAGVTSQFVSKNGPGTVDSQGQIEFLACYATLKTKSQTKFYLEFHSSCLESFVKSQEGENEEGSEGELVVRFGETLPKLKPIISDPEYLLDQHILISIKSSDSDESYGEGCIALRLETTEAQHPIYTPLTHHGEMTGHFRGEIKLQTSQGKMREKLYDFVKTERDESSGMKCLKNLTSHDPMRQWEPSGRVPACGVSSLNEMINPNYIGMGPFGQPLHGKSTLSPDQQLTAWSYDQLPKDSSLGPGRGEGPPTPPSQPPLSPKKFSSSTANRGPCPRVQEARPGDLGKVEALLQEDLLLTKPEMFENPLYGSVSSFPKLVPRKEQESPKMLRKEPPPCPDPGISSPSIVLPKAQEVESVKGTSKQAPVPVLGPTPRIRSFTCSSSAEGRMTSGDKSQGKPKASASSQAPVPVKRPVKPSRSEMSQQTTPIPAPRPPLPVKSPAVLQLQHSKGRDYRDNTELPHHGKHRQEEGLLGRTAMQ

Compound | ability of splenocytes to prime allogeneic T cell responses by BALB/C responders (3H-thymidine uptake) [1] | inhibition of SHIP1 (SHIP1)
OC(c1cc(-c2ccccc2)nc2c1ccc1ccccc12)C1CCCCN1 (centres unmarked) [NSC13480, (2-phenylbenzo[h]quinolin-4-yl)-piperidin-2-ylmethanol] | significantly inhibited; also recorded: complete inability to prime allogeneic T cell responses | 
CC(C)CCC[C@@H](C)[C@H]1CC[C@H]2[C@@H]3CC[C@H]4C[C@H](N)CC[C@]4(C)[C@H]3CC[C@]12C [NSC23922, (3R,5S,8R,9S,10S,13R,14S,17R)-10,13-dimethyl-17-[(2R)-6-methylheptan-2-yl]-2,3,4,5,6,7,8,9,11,12,14,15,16,17-tetradecahydro-1H-cyclopenta[a]phenanthren-3-amine] |  | full inhibition
